# Laboratory results published in ChEMBL document CHEMBL3044874, “Synthesis and characterization of some heterocyclic schiff bases: potential anticonvulsant agents” (Med Chem Res, 2011).
# The source made the active and inactive calls. The rule behind the calls is not given here.
# What was measured:
# Mus musculus [1] = assay: Anticonvulsant activity in ip dosed Mus musculus Swiss albino (mouse) assessed as protection against pentylenetetrazole-induced seizure at 0.5 hr; type: functional; conditions: read-out: MED
# Mus musculus [2] = assay: Anticonvulsant activity in Mus musculus Swiss albino (mouse) assessed as protection against strychnine-induced seizure at 300 mg/kg, ip measured at 0.5 hr; type: functional, organism-based; design: dose 300 mg/kg
# Mus musculus [3] = assay: Anticonvulsant activity in ip dosed Mus musculus Swiss albino (mouse) assessed as protection against pentylenetetrazole-induced seizure; type: functional
# Mus musculus [4] = assay: Anticonvulsant activity in ip dosed Mus musculus Swiss albino (mouse) assessed as protection against pentylenetetrazole-induced seizure at 4 hr; type: functional; conditions: read-out: MED
# Mus musculus [5] = assay: Neurotoxicity against ip dosed Mus musculus Swiss albino (mouse) at 0.5 hr by rota rod test; type: toxicity, organism-based; conditions: in vivo
# Mus musculus [6] = assay: Anticonvulsant activity in Mus musculus Swiss albino (mouse) assessed as protection against maximal electroshock-induced seizure at 300 mg/kg, ip measured at 4 hr; type: functional, organism-based; design: dose 300 mg/kg
# Mus musculus [7] = assay: Neurotoxicity against Mus musculus Swiss albino (mouse) at 300 mg/kg, ip measured at 4 hr by rota rod test; type: toxicity, organism-based; design: dose 300 mg/kg, route intraperitoneal; conditions: in vivo
# Mus musculus [8] = assay: Anticonvulsant activity in Mus musculus Swiss albino (mouse) assessed as protection against maximal electroshock-induced seizure at 300 mg/kg, ip measured at 0.5 hr; type: functional, organism-based; design: dose 300 mg/kg
# Mus musculus [9] = assay: Anticonvulsant activity in Mus musculus Swiss albino (mouse) assessed as protection against strychnine-induced seizure at 300 mg/kg, ip measured at 4 hr; type: functional, organism-based; design: dose 300 mg/kg
# [10] = Neurotoxicity against ip dosed Mus musculus Swiss albino (mouse) by rota rod test; type: toxicity, organism-based; conditions: in vivo
# Mus musculus [11] = assay: Anticonvulsant activity in Mus musculus Swiss albino (mouse) assessed as protection against strychnine-induced seizure at 300 mg/kg, ip; type: functional, organism-based; design: dose 300 mg/kg
# Mus musculus [12] = assay: Anticonvulsant activity in Mus musculus Swiss albino (mouse) assessed as protection against maximal electroshock-induced seizure at 300 mg/kg, ip; type: functional, organism-based; design: dose 300 mg/kg
# [13] = Protection index, ratio TD50 for neurotoxicity to ED50 for protection against maximal electroshock-induced seizure in Mus musculus Swiss albino (mouse); type: toxicity, organism-based; conditions: in vivo, read-out: Ratio TD50/ED50
# Rattus norvegicus [14] = assay: Anticonvulsant activity in Rattus norvegicus Wistar (rat) assessed as protection against maximal electroshock-induced seizure at 30 mg/kg, po measured at 4 hr; type: functional, organism-based; design: dose 30 mg/kg
# Mus musculus [15] = assay: Anticonvulsant activity in ip dosed Mus musculus Swiss albino (mouse) assessed as protection against maximal electroshock-induced seizure at 4 hr; type: functional; conditions: read-out: MED
# Mus musculus [16] = assay: Neurotoxicity against Mus musculus Swiss albino (mouse) at 300 mg/kg, ip measured at 0.5 hr by rota rod test; type: toxicity, organism-based; design: dose 300 mg/kg, route intraperitoneal; conditions: in vivo
# Rattus norvegicus [17] = assay: Anticonvulsant activity in Rattus norvegicus Wistar (rat) assessed as protection against maximal electroshock-induced seizure at 30 mg/kg, po measured at 1 hr; type: functional, organism-based; design: dose 30 mg/kg
# Rattus norvegicus [18] = assay: Anticonvulsant activity in Rattus norvegicus Wistar (rat) assessed as protection against maximal electroshock-induced seizure at 30 mg/kg, po measured at 2 hr; type: functional, organism-based; design: dose 30 mg/kg
# Rattus norvegicus [19] = assay: Anticonvulsant activity in Rattus norvegicus Wistar (rat) assessed as protection against maximal electroshock-induced seizure at 30 mg/kg, po measured at 0.25 hr; type: functional, organism-based; design: dose 30 mg/kg
# Mus musculus [20] = assay: Anticonvulsant activity in ip dosed Mus musculus Swiss albino (mouse) assessed as protection against maximal electroshock-induced seizure; type: functional
# Mus musculus [21] = assay: Anticonvulsant activity in ip dosed Mus musculus Swiss albino (mouse) assessed as protection against maximal electroshock-induced seizure at 0.5 hr; type: functional; conditions: read-out: MED
# Rattus norvegicus [22] = assay: Anticonvulsant activity in Rattus norvegicus Wistar (rat) assessed as protection against maximal electroshock-induced seizure at 30 mg/kg, po measured at 0.5 hr; type: functional, organism-based; design: dose 30 mg/kg
# Mus musculus [23] = assay: Anticonvulsant activity in ip dosed Mus musculus Swiss albino (mouse) assessed as protection against strychnine-induced seizure; type: functional
# Mus musculus [24] = assay: Anticonvulsant activity in ip dosed Mus musculus Swiss albino (mouse) assessed as protection against strychnine-induced seizure at 4 hr; type: functional; conditions: read-out: MED
# Mus musculus [25] = assay: Anticonvulsant activity in Mus musculus Swiss albino (mouse) assessed as protection against pentylenetetrazole-induced seizure at 300 mg/kg, ip; type: functional, organism-based; design: dose 300 mg/kg
# Mus musculus [26] = assay: Anticonvulsant activity in Mus musculus Swiss albino (mouse) assessed as protection against pentylenetetrazole-induced seizure at 300 mg/kg, ip measured at 0.5 hr; type: functional, organism-based; design: dose 300 mg/kg
# Mus musculus [27] = assay: Anticonvulsant activity in ip dosed Mus musculus Swiss albino (mouse) assessed as protection against strychnine-induced seizure at 0.5 hr; type: functional; conditions: read-out: MED
# Mus musculus [28] = assay: Anticonvulsant activity in Mus musculus Swiss albino (mouse) assessed as protection against pentylenetetrazole-induced seizure at 300 mg/kg, ip measured at 4 hr; type: functional, organism-based; design: dose 300 mg/kg
# Mus musculus [29] = assay: Neurotoxicity against ip dosed Mus musculus Swiss albino (mouse) at 4 hr by rota rod test; type: toxicity, organism-based; conditions: in vivo
smiles,measurement,setting,value
CC12CCC(C/C1=N/Cc1cccnc1)C2(C)C (configuration not stated),minimal effective dose,Mus musculus [1],30 mg/kg
same,Activity,Mus musculus [2],inactive
same,ED50,Mus musculus [3],32.2 mg/kg
same,minimal effective dose,Mus musculus [4],100 mg/kg
same,MTC,Mus musculus [5],300 mg/kg
same,Activity,Mus musculus [6],inactive
same,Activity,Mus musculus [7],Non-toxic
same,Activity,Mus musculus [8],inactive
same,Activity,Mus musculus [9],inactive
same,TD50,[10],176 mg/kg
same,Activity,Mus musculus [11],inactive
same,Activity,Mus musculus [12],inactive
same,selectivity ratio,[13],5.45
C/C(=N\Cc1cccnc1)c1ccccc1,minimal effective dose,Mus musculus [1],30 mg/kg
same,Activity,Rattus norvegicus [14],Active
same,minimal effective dose,Mus musculus [15],30 mg/kg
same,Activity,Mus musculus [2],inactive
same,ED50,Mus musculus [3],23.2 mg/kg
same,Activity,Mus musculus [16],Non-toxic
same,Activity,Rattus norvegicus [17],Active
same,minimal effective dose,Mus musculus [4],30 mg/kg
same,Activity,Rattus norvegicus [18],Active
same,Activity,Mus musculus [7],Non-toxic
same,Activity,Mus musculus [9],inactive
same,TD50,[10],> 500 mg/kg
same,Activity,Rattus norvegicus [19],inactive
same,Activity,Mus musculus [11],inactive
same,selectivity ratio,[13],> 10
same,ED50,Mus musculus [20],55.7 mg/kg
same,minimal effective dose,Mus musculus [21],100 mg/kg
same,Activity,Rattus norvegicus [22],inactive
COc1cc(/C=N/Cc2cccnc2)cc(OC)c1OC,Activity,Rattus norvegicus [14],Active
same,minimal effective dose,Mus musculus [15],100 mg/kg
same,ED50,Mus musculus [23],50.3 mg/kg
same,Activity,Mus musculus [16],Non-toxic
same,minimal effective dose,Mus musculus [24],30 mg/kg
same,Activity,Rattus norvegicus [17],inactive
same,Activity,Mus musculus [25],inactive
same,Activity,Rattus norvegicus [18],Active
same,Activity,Mus musculus [7],Non-toxic
same,TD50,[10],> 500 mg/kg
same,Activity,Rattus norvegicus [19],inactive
same,selectivity ratio,[13],> 10
same,ED50,Mus musculus [20],71.7 mg/kg
same,minimal effective dose,Mus musculus [21],100 mg/kg
same,Activity,Mus musculus [26],inactive
same,Activity,Rattus norvegicus [22],inactive
same,minimal effective dose,Mus musculus [27],100 mg/kg
same,Activity,Mus musculus [28],inactive
O=[N+]([O-])c1ccc(/C=N/Cc2cccnc2)cc1,minimal effective dose,Mus musculus [1],100 mg/kg
same,Activity,Rattus norvegicus [14],inactive
same,minimal effective dose,Mus musculus [15],100 mg/kg
same,ED50,Mus musculus [23],22.2 mg/kg
same,Activity,Mus musculus [16],Non-toxic
same,minimal effective dose,Mus musculus [24],100 mg/kg
same,Activity,Rattus norvegicus [17],inactive
same,minimal effective dose,Mus musculus [4],300 mg/kg
same,Activity,Mus musculus [25],inactive
same,Activity,Rattus norvegicus [18],inactive
same,Activity,Mus musculus [7],Non-toxic
same,TD50,[10],> 500 mg/kg
same,Activity,Rattus norvegicus [19],inactive
same,selectivity ratio,[13],> 10
same,ED50,Mus musculus [20],61.4 mg/kg
same,minimal effective dose,Mus musculus [21],100 mg/kg
same,Activity,Rattus norvegicus [22],inactive
same,minimal effective dose,Mus musculus [27],30 mg/kg
c1ccc(C(=NCc2cccnc2)c2ccccc2)cc1,Activity,Rattus norvegicus [14],Active
same,minimal effective dose,Mus musculus [15],30 mg/kg
same,Activity,Mus musculus [2],inactive
same,Activity,Mus musculus [16],Non-toxic
same,Activity,Rattus norvegicus [17],Active
same,Activity,Mus musculus [25],inactive
same,Activity,Rattus norvegicus [18],inactive
same,Activity,Mus musculus [7],Non-toxic
same,Activity,Mus musculus [9],inactive
same,TD50,[10],> 500 mg/kg
same,Activity,Rattus norvegicus [19],Active
same,Activity,Mus musculus [11],inactive
same,selectivity ratio,[13],> 10
same,ED50,Mus musculus [20],9.13 mg/kg
same,minimal effective dose,Mus musculus [21],30 mg/kg
same,Activity,Mus musculus [26],inactive
same,Activity,Rattus norvegicus [22],Active
same,Activity,Mus musculus [28],inactive
c1cncc(CN=C2CCCCC2)c1,minimal effective dose,Mus musculus [1],30 mg/kg
same,Activity,Mus musculus [2],inactive
same,ED50,Mus musculus [3],14.2 mg/kg
same,Activity,Mus musculus [16],Non-toxic
same,minimal effective dose,Mus musculus [4],30 mg/kg
same,Activity,Mus musculus [6],inactive
same,Activity,Mus musculus [7],Non-toxic
same,Activity,Mus musculus [8],inactive
same,Activity,Mus musculus [9],inactive
same,TD50,[10],> 500 mg/kg
same,Activity,Mus musculus [11],inactive
same,Activity,Mus musculus [12],inactive
same,selectivity ratio,[13],> 10
COc1cc(/C=N/Cc2cccnc2)ccc1O,minimal effective dose,Mus musculus [1],30 mg/kg
same,Activity,Rattus norvegicus [14],Active
same,minimal effective dose,Mus musculus [15],30 mg/kg
same,ED50,Mus musculus [23],14.2 mg/kg
same,ED50,Mus musculus [3],6.44 mg/kg
same,minimal effective dose,Mus musculus [24],30 mg/kg
same,Activity,Rattus norvegicus [17],Active
same,minimal effective dose,Mus musculus [4],30 mg/kg
same,Activity,Rattus norvegicus [18],Active
same,MTC,Mus musculus [5],300 mg/kg
same,Activity,Mus musculus [7],Non-toxic
same,TD50,[10],176 mg/kg
same,Activity,Rattus norvegicus [19],inactive
same,selectivity ratio,[13],3.31
same,ED50,Mus musculus [20],53 mg/kg
same,minimal effective dose,Mus musculus [21],100 mg/kg
same,Activity,Rattus norvegicus [22],inactive
same,minimal effective dose,Mus musculus [27],30 mg/kg
C(=N\Cc1cccnc1)/c1c[nH]c2ccccc12,minimal effective dose,Mus musculus [1],30 mg/kg
same,ED50,Mus musculus [3],6.47 mg/kg
same,minimal effective dose,Mus musculus [24],100 mg/kg
same,minimal effective dose,Mus musculus [4],30 mg/kg
same,MTC,Mus musculus [5],100 mg/kg
same,Activity,Mus musculus [6],inactive
same,TD50,[10],> 500 mg/kg
same,Activity,Mus musculus [11],inactive
same,Activity,Mus musculus [12],inactive
same,selectivity ratio,[13],> 10
same,minimal effective dose,Mus musculus [21],300 mg/kg
same,MTC,Mus musculus [29],100 mg/kg
same,minimal effective dose,Mus musculus [27],300 mg/kg
COc1ccc(/C=N/Cc2cccnc2)cc1OC,minimal effective dose,Mus musculus [1],30 mg/kg
same,Activity,Mus musculus [2],inactive
same,ED50,Mus musculus [3],11.7 mg/kg
same,Activity,Mus musculus [16],Non-toxic
same,minimal effective dose,Mus musculus [4],30 mg/kg
same,Activity,Mus musculus [6],inactive
same,Activity,Mus musculus [7],Non-toxic
same,Activity,Mus musculus [9],inactive
same,TD50,[10],> 500 mg/kg
same,Activity,Mus musculus [11],inactive
same,Activity,Mus musculus [12],inactive
same,selectivity ratio,[13],> 10
same,minimal effective dose,Mus musculus [21],300 mg/kg
